Laboratory results reported in paper PMC12777571, “The molecular basis of intrinsic resistance to azoles in Rhizopus arrhizus” (Antimicrobial Agents and Chemotherapy, 2025).
Like-named read-outs stand apart in the source and are kept apart here.

What was measured:
[1] = molecular target: T1, RaCYP51-F5 + RaCPR (strain Y-F5/CPR and variants) (Rhizopus delemar, UniProt I1CTV4); assay: biochemical
T1 construct: gene RO3G_16595
Excerpt: inhibition of BOMCC hydrolysis in crude membranes, fluorescence on RaCYP51-F5 + RaCPR (strain Y-F5/CPR and variants)

[2] = molecular target: T2, RaCYP51-F1 + RaCPR (strain Y-F1/CPR) (Rhizopus delemar, UniProt I1CF49); assay: inhibition of BOMCC hydrolysis in crude membranes, fluorescence; type: biochemical
T2 construct: gene RO3G_11790; full-length, codon-optimized, C-terminal GGR linker and 6xHis; co-expressed with 6xHis RaCPR in S. cerevisiae ADΔΔ deleted of native ERG11; crude membranes; ~60 kDa; with NADPH--cytochrome P450 reductase
T2 sequence (I1CF49 entry or part of it): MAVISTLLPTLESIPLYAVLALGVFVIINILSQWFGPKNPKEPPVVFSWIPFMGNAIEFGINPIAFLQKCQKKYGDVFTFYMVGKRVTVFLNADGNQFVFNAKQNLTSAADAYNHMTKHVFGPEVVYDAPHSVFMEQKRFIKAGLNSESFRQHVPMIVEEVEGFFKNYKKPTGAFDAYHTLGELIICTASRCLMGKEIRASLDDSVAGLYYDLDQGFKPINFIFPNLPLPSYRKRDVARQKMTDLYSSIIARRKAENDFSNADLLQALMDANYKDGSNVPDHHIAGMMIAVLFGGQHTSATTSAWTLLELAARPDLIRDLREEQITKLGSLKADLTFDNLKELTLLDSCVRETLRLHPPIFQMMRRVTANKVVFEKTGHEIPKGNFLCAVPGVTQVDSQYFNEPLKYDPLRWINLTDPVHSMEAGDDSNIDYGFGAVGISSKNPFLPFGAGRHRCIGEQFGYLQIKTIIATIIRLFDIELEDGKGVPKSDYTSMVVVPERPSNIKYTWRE
T2 sequence (I1CM61 entry or part of it, further chain): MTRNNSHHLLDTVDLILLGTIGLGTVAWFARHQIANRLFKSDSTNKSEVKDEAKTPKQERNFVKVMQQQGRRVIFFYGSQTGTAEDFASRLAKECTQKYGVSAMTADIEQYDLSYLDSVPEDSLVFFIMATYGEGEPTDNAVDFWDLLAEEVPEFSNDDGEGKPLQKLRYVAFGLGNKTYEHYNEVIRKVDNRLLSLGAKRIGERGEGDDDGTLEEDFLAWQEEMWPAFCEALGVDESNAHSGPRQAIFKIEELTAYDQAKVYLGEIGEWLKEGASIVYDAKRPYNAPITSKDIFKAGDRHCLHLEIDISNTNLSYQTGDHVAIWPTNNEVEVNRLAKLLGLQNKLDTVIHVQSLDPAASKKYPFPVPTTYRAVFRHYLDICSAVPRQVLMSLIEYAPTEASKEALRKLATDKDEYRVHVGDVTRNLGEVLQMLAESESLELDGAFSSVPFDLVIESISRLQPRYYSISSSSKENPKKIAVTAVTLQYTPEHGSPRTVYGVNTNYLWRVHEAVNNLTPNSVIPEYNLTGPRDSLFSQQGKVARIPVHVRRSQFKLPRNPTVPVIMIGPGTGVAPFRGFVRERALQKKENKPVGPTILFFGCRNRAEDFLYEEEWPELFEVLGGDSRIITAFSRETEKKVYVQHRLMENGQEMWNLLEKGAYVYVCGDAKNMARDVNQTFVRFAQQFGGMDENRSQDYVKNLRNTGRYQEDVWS

[3] = molecular target: T3, partially purified RaCYP51-F5 (Rhizopus delemar, UniProt I1CTV4); assay: type II difference spectrum (Soret red shift); type: binding; conditions: 1.0 µM enzyme, 40 µM azole (saturating); heme iron coordination
T3 construct: gene RO3G_16595; full-length, codon-optimized, C-terminal GGR linker and 6xHis; expressed in S. cerevisiae ADΔΔ; Ni-NTA purified from n-decyl-β-D-maltoside extract; ~60 kDa

[4] = molecular target: T4, RaCYP51-F5 + RaCPR (strain Y-F5/CPR and variants) (Rhizopus delemar, UniProt I1CTV4, A291V/F129Y); assay: inhibition of BOMCC hydrolysis in crude membranes, fluorescence; type: biochemical
T4 construct: gene RO3G_16595; full-length, codon-optimized, C-terminal GGR linker and 6xHis; co-expressed with 6xHis RaCPR in S. cerevisiae ADΔΔ deleted of native ERG11; crude membranes; ~60 kDa; with NADPH--cytochrome P450 reductase
T4 sequence (I1CTV4 whole entry, stated change not applied): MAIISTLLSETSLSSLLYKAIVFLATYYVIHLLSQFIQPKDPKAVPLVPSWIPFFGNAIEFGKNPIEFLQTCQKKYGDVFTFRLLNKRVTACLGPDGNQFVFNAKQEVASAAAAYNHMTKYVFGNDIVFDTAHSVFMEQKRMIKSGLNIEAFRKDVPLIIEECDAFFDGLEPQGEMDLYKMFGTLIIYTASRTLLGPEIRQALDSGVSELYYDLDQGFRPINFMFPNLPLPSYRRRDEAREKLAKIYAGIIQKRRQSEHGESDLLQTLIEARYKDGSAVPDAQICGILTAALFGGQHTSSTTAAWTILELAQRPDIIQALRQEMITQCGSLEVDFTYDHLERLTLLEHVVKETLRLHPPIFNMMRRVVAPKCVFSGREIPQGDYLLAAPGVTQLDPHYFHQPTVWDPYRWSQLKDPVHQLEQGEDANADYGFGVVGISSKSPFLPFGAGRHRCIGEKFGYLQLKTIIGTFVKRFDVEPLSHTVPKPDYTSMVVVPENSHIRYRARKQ
T4 sequence (I1CM61 whole entry, stated change not applied, further chain): as the sequence (I1CM61 entry or part of it, further chain) above

[5] = molecular target: T5, RaCYP51-F5 + RaCPR (strain Y-F5/CPR and variants) (Rhizopus delemar, UniProt I1CTV4, F129Y); assay: as above; type: biochemical
T5 construct: gene RO3G_16595; full-length, codon-optimized, C-terminal GGR linker and 6xHis; co-expressed with 6xHis RaCPR in S. cerevisiae ADΔΔ deleted of native ERG11; crude membranes; ~60 kDa; with NADPH--cytochrome P450 reductase
T5 sequence (I1CM61 whole entry, stated change not applied): as the sequence (I1CM61 entry or part of it, further chain) above
T5 sequence (I1CTV4 whole entry, stated change not applied): as the sequence (I1CTV4 whole entry, stated change not applied) above

[6] = molecular target: T6, RaCYP51-F5 + RaCPR (strain Y-F5/CPR and variants) (Rhizopus delemar, UniProt I1CTV4, A291V); assay: as above; type: biochemical
T6 construct: gene RO3G_16595; full-length, codon-optimized, C-terminal GGR linker and 6xHis; co-expressed with 6xHis RaCPR in S. cerevisiae ADΔΔ deleted of native ERG11; crude membranes; ~60 kDa; with NADPH--cytochrome P450 reductase
T6 sequence (I1CTV4 whole entry, stated change not applied): as above
T6 sequence (I1CM61 whole entry, stated change not applied, further chain): as the sequence (I1CM61 entry or part of it, further chain) above

| Compound | IC50 [1] [nM] | IC50 ([2]; read-out: Posaconazole IC50) [nM] | type II difference spectrum (Soret red shift) [3] | IC50 [4] [nM] | IC50 [5] [nM] | IC50 [6] [nM] | IC50 ([2]; read-out: Voriconazole IC50) [nM] |
| --- | --- | --- | --- | --- | --- | --- | --- |
| CC[C@@H]([C@H](C)O)n1ncn(-c2ccc(N3CCN(c4ccc(OC[C@@H]5CO[C@@](Cn6cncn6)(c6ccc(F)cc6F)C5)cc4)CC3)cc2)c1=O [posaconazole] | 56 ± 28 | 21 ± 11 | bound posaconazole or voriconazole upon exposure to saturating levels of these drugs | 63 | 75 ± 35 | 55 ± 7 |  |
| C[C@@H](c1ncncc1F)[C@](O)(Cn1cncn1)c1ccc(F)cc1F [voriconazole] | > 1000 |  | bound posaconazole or voriconazole upon exposure to saturating levels of these drugs | 60 ± 14 | 140 ± 57 | 500 | 100 ± 70 |
